Data as given in US8017612B2, “Piperazine compound and use thereof as a HCV polymerase inhibitor” (priority 2006, dated 2011).

Legend:
[1] = target: T1, HCV polymerase (NS5B) type 1b (Hepatitis C virus genotype 1b, UniProt P26663); assay: Assay of enzyme (HCV polymerase) inhibitory activity, type 1b enzyme; assay type: biochemical, HCV BK strain (type 1b); conditions: HCV polymerase inhibitory activity (IC50), 1b, type 1b enzyme 0.5 μg/ml, 25° C., 60 min
T1 construct: a region encoding NS5B (J Virol 1991 March, 65(3), 1105-13, 544 amino acids after deletion of 47 amino acids on the C-terminal); 6xHis (C); made in house; host or cells: Escherichia coli
How it was run: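 Polymerase activity was followed as radiolabelled UTP incorporation by E. coli-expressed, His-tagged NS5B of HCV type 1b lacking its last 47 residues. Conditions: 2 μM UTP, 50 μM other NTPs, Mg2+ buffer at pH 7.5, 25 °C for 60 min. Inhibition relative to compound-free reactions gave IC50.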

[2] = target: T2, HCV polymerase (NS5B) type 1a (Hepatitis C virus genotype 1a, UniProt P26664); assay: Assay of enzyme (HCV polymerase) inhibitory activity, type 1a enzyme; assay type: biochemical, HCV type 1a (cloned from the blood of patients); conditions: HCV polymerase inhibitory activity (IC50), 1a, type 1a enzyme 1.5 μg/ml, 25° C., 60 min
T2 construct: made in house; host or cells: Escherichia coli (by the 'similar method' of the 1b enzyme)
How it was run: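 IC50 values derive from radioactivity of newly synthesized RNA with versus without test compound. The enzyme was C-terminally truncated type 1a NS5B, 1.5 μg/ml, run 60 min at 25° C with 3H-UTP-labelled nucleotides.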

SMILES | IC50 [1] | IC50 [2]
CC(C)(C)c1ccc(CNC(=O)[C@H]2CN(c3cnc(CO)c(N)n3)CCN2S(=O)(=O)c2ccc(OC(F)(F)F)cc2)cc1 [Example 575, (R)-6′-amino-5′-hydroxymethyl-4-(4-trifluoromethoxy-benzenesulfonyl)-3,4,5,6-tetrahydro-2H-[1,2′]bipyrazinyl-3-carboxylic acid 4-tert-butyl-benzylamide] | < 100 nM | < 100 nM
CCC(F)(F)c1ccc(CNC(=O)[C@H]2CN(c3nc(C)ns3)CCN2S(=O)(=O)c2ccc(OC(F)(F)F)cc2)cc1 [Example 576, (R)-4-(3-methyl-[1,2,4]thiadiazol-5-yl)-1-(4-trifluoromethoxy-benzenesulfonyl)-piperazine-2-carboxylic acid 4-(1,1-difluoro-propyl)-benzylamide] | < 100 nM | < 100 nM
Cc1nc(N2CCN(S(=O)(=O)c3ccc(OC(F)(F)F)cc3)[C@@H](C(=O)NCc3ccc(C(C)(C)C)cc3)C2)sc1C#N [Example 577, (R)-4-(5-cyano-4-methyl-thiazol-2-yl)-1-(4-trifluoromethoxy-benzenesulfonyl)-piperazine-2-carboxylic acid 4-tert-butyl-benzylamide] | < 100 nM | < 100 nM
CC(C)(C)c1ccc(CNC(=O)[C@H]2CN(c3nc4c(s3)C(=O)NCC4)CCN2S(=O)(=O)c2ccc(OC(F)(F)F)cc2)cc1 [Example 578, (R)-4-(4-oxo-4,5,6,7-tetrahydro-thiazolo[5,4-c]pyridin-2-yl)-1-(4-trifluoromethoxy-benzenesulfonyl)-piperazine-2-carboxylic acid 4-tert-butyl-benzylamide] | < 100 nM | < 100 nM
CC(C)(C)c1ccc(CNC(=O)[C@H]2CN(c3cnc4c(n3)NC(=O)OC4)CCN2S(=O)(=O)c2ccc(OC(F)(F)F)cc2)cc1 [Example 579, (R)-4-(2-oxo-1,4-dihydro-2H-pyrazino[2,3-d][1,3]oxazin-7-yl)-1-(4-trifluoromethoxy-benzenesulfonyl)-piperazine-2-carboxylic acid 4-tert-butyl-benzylamide] | < 100 nM | < 100 nM
CCC(F)(F)c1ccc(CNC(=O)[C@H]2CN(c3ccncn3)CCN2S(=O)(=O)c2ccc(OC(F)(F)F)cc2)cc1 [Example 580, (R)-4-pyrimidin-4-yl-1-(4-trifluoromethoxy-benzenesulfonyl)-piperazine-2-carboxylic acid 4-(1,1-difluoro-propyl)-benzylamide] | < 100 nM | < 100 nM
CC(C)(C)c1ccc(CNC(=O)[C@H]2CN(c3ccnc(O)n3)CCN2S(=O)(=O)c2ccc(OC(F)(F)F)cc2)cc1 [Example 581, (R)-4-(2-hydroxy-pyrimidin-4-yl)-1-(4-trifluoromethoxy-benzenesulfonyl)-piperazine-2-carboxylic acid 4-tert-butyl-benzylamide] | < 100 nM | < 100 nM
CCOC(=O)c1sc(N2CCN(S(=O)(=O)c3ccc(OC(F)(F)F)cc3)[C@@H](C(=O)NCc3ccc(C(C)(C)C)cc3)C2)nc1N [Example 582, 4-amino-2-[(R)-3-(4-tert-butyl-benzylcarbamoyl)-4-(4-trifluoromethoxy-benzenesulfonyl)-piperazin-1-yl]-thiazole-5-carboxylic acid ethyl ester] | 100 to 1000 nM | 100 to 1000 nM
Cc1nc(N2CCN(S(=O)(=O)c3ccc(OC(F)(F)F)cc3)[C@@H](C(=O)NCc3ccc(C(C)(C)C)cc3)C2)sc1-c1nnn[nH]1 [Example 583, (R)-4-[4-methyl-5-(1H-tetrazol-5-yl)-thiazol-2-yl]-1-(4-trifluoromethoxy-benzenesulfonyl)-piperazine-2-carboxylic acid 4-tert-butyl-benzylamide] | < 100 nM | < 100 nM
CCC(F)(F)c1ccc(CNC(=O)[C@H]2CN(c3ccnc(N)n3)CCN2S(=O)(=O)c2ccc(OC(F)(F)F)cc2)cc1 [Example 584, (R)-4-(2-amino-pyrimidin-4-yl)-1-(4-trifluoromethoxy-benzenesulfonyl)-piperazine-2-carboxylic acid 4-(1,1-difluoro-propyl)-benzylamide] | < 100 nM | < 100 nM
CCC(F)(F)c1ccc(CNC(=O)[C@H]2CN(c3nccc(N)n3)CCN2S(=O)(=O)c2ccc(OC(F)(F)F)cc2)cc1 [Example 585, (R)-4-(4-amino-pyrimidin-2-yl)-1-(4-trifluoromethoxy-benzenesulfonyl)-piperazine-2-carboxylic acid 4-(1,1-difluoro-propyl)-benzylamide] | 100 to 1000 nM | 100 to 1000 nM
CCC(F)(F)c1ccc(CNC(=O)[C@H]2CN(c3cnc(C(N)=O)cn3)CCN2S(=O)(=O)c2ccc(OC(F)(F)F)cc2)cc1 [Example 586, (R)-4-(4-trifluoromethoxy-benzenesulfonyl)-3,4,5,6-tetrahydro-2H-[1,2′]bipyrazinyl-3,5′-dicarboxylic acid 5′-amide 3-[4-(1,1-difluoro-propyl)-benzylamide]] | < 100 nM | < 100 nM
CC(C)(C)OC(=O)N1CCc2nc(N3CCN(S(=O)(=O)c4ccc(OC(F)(F)F)cc4)[C@@H](C(=O)NCc4ccc(C(C)(C)C)cc4)C3)sc2C1 [Example 587, 2-[(R)-3-(4-tert-butyl-benzylcarbamoyl)-4-(4-trifluoromethoxy-benzenesulfonyl)-piperazin-1-yl]-6,7-dihydro-4H-thiazolo[5,4-c]pyridine-5-carboxylic acid tert-butyl ester] | < 100 nM | 100 to 1000 nM
CC(C)(C)c1ccc(CNC(=O)[C@H]2CN(c3nc4c(s3)CNCC4)CCN2S(=O)(=O)c2ccc(OC(F)(F)F)cc2)cc1 [Example 588, (R)-4-(4,5,6,7-tetrahydro-thiazolo[5,4-c]pyridin-2-yl)-1-(4-trifluoromethoxy-benzenesulfonyl)-piperazine-2-carboxylic acid 4-tert-butyl-benzylamide] | < 100 nM | < 100 nM
CC(=O)N1CCc2nc(N3CCN(S(=O)(=O)c4ccc(OC(F)(F)F)cc4)[C@@H](C(=O)NCc4ccc(C(C)(C)C)cc4)C3)sc2C1 [Example 589, (R)-4-(5-acetyl-4,5,6,7-tetrahydro-thiazolo[5,4-c]pyridin-2-yl)-1-(4-trifluoromethoxy-benzenesulfonyl)-piperazine-2-carboxylic acid 4-tert-butyl-benzylamide] | < 100 nM | < 100 nM
CCC(F)(F)c1ccc(CNC(=O)[C@H]2CN(C(=O)Cc3ccncn3)CCN2S(=O)(=O)c2ccc(OC(F)(F)F)cc2)cc1 [Example 590, (R)-4-(2-pyrimidin-4-yl-acetyl)-1-(4-trifluoromethoxy-benzenesulfonyl)-piperazine-2-carboxylic acid 4-(1,1-difluoro-propyl)-benzylamide] | < 100 nM | < 100 nM
CCC(F)(F)c1ccc(CNC(=O)[C@H]2CN(c3cnc(C#N)cn3)CCN2S(=O)(=O)c2ccc(OC(F)(F)F)cc2)cc1 [Example 591, (R)-5′-cyano-4-(4-trifluoromethoxy-benzenesulfonyl)-3,4,5,6-tetrahydro-2H-[1,2′]bipyrazinyl-3-carboxylic acid 4-(1,1-difluoro-propyl)-benzylamide] | < 100 nM | < 100 nM
